# Measurements: article PMC8632988, “Inhibition of SYK and cSrc kinases can protect bone and cartilage in preclinical models of osteoarthritis and rheumatoid arthritis” (Scientific Reports, 2021)
# pIC50: −log10 of the molar value.
# Legend:
# Test in all cases: Kinase selectivity profile assay
# Format in all cases: biochemical
# CLK2 = molecular target: T1, CLK2 (Homo sapiens, UniProt P49760); conditions: 500 nM; relative to DMSO; read-out: Residual enzymatic activity
# T1 construct: purchased Reaction Biology Corporation
# Summary of the method: (§1)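 Radiometric kinase assay run by a standard protocol. Unbound phosphate was removed by washing filters in phosphoric acid, and product radioactivity gave percent remaining kinase activity versus DMSO vehicle reactions. Run in duplicate.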
# PKD2/PRKD2 = molecular target: T2, PKD2/PRKD2 (Homo sapiens, UniProt Q9BZL6); conditions: 500 nM; relative to DMSO; read-out: Residual enzymatic activity
# T2 construct: purchased Reaction Biology Corporation
# Summary of the method: as §1
# MEK3 = molecular target: T3, MEK3 (Homo sapiens, UniProt P46734); conditions: 500 nM; relative to DMSO; read-out: Residual enzymatic activity
# T3 construct: purchased Reaction Biology Corporation
# Summary of the method: as §1
# ZAP70 = molecular target: T4, ZAP70 (Homo sapiens, UniProt P43403); conditions: 500 nM; relative to DMSO; read-out: Residual enzymatic activity
# T4 construct: purchased Reaction Biology Corporation
# Summary of the method: as §1
# MEK2 = molecular target: T5, MEK2 (Homo sapiens, UniProt P36507); conditions: 500 nM; relative to DMSO; read-out: Residual enzymatic activity
# T5 construct: purchased Reaction Biology Corporation
# Summary of the method: as §1
# ACK1 = molecular target: T6, ACK1 (Homo sapiens, UniProt Q07912); conditions: for remaining activity at 0.5 µM: 500 nM, relative to DMSO, read-out: Residual enzymatic activity
# T6 construct: purchased Reaction Biology Corporation (assay service)
# Summary of the method: as §1
# SNARK/NUAK2 = molecular target: T7, SNARK/NUAK2 (Homo sapiens, UniProt Q9H093); conditions: 500 nM; relative to DMSO; read-out: Residual enzymatic activity
# T7 construct: purchased Reaction Biology Corporation
# Summary of the method: as §1
# SRPK1 = molecular target: T8, SRPK1 (Homo sapiens, UniProt Q96SB4); conditions: 500 nM; relative to DMSO; read-out: Residual enzymatic activity
# T8 construct: purchased Reaction Biology Corporation
# Summary of the method: as §1
# ASK1/MAP3K5 = molecular target: T9, ASK1/MAP3K5 (Homo sapiens, UniProt Q99683); conditions: 500 nM; relative to DMSO; read-out: Residual enzymatic activity
# T9 construct: purchased Reaction Biology Corporation
# Summary of the method: as §1
# BRSK2 = molecular target: T10, BRSK2 (Homo sapiens, UniProt Q8IWQ3); conditions: 500 nM; relative to DMSO; read-out: Residual enzymatic activity
# T10 construct: purchased Reaction Biology Corporation
# Summary of the method: as §1
# RIPK3 = molecular target: T11, RIPK3 (Homo sapiens, UniProt Q9Y572); conditions: 500 nM; relative to DMSO; read-out: Residual enzymatic activity
# T11 construct: purchased Reaction Biology Corporation
# Summary of the method: as §1
# JAK3 = molecular target: T12, JAK3 (Homo sapiens, UniProt P52333); conditions: 500 nM; relative to DMSO; read-out: Residual enzymatic activity
# T12 construct: purchased Reaction Biology Corporation
# Summary of the method: as §1
# FER = molecular target: T13, FER (Homo sapiens, UniProt P16591); conditions: 500 nM; relative to DMSO; read-out: Residual enzymatic activity
# T13 construct: purchased Reaction Biology Corporation
# Summary of the method: as §1
# MUSK = molecular target: T14, MUSK (Homo sapiens, UniProt O15146); conditions: 500 nM; relative to DMSO; read-out: Residual enzymatic activity
# T14 construct: purchased Reaction Biology Corporation
# Summary of the method: as §1
# DYRK2 = molecular target: T15, DYRK2 (Homo sapiens, UniProt Q92630); conditions: 500 nM; relative to DMSO; read-out: Residual enzymatic activity
# T15 construct: purchased Reaction Biology Corporation
# Summary of the method: as §1
# PIM3 = molecular target: T16, PIM3 (Homo sapiens, UniProt Q86V86); conditions: 500 nM; relative to DMSO; read-out: Residual enzymatic activity
# T16 construct: purchased Reaction Biology Corporation
# Summary of the method: as §1
# MLK2/MAP3K10 = molecular target: T17, MLK2/MAP3K10 (Homo sapiens, UniProt Q02779); conditions: for remaining activity at 0.5 µM: 500 nM, relative to DMSO, read-out: Residual enzymatic activity
# T17 construct: purchased Reaction Biology Corporation (assay service)
# Summary of the method: as §1
# STK32B/YANK2 = molecular target: T18, STK32B/YANK2 (Homo sapiens, UniProt Q9NY57); conditions: 500 nM; relative to DMSO; read-out: Residual enzymatic activity
# T18 construct: purchased Reaction Biology Corporation
# Summary of the method: as §1
# PKAcg = molecular target: T19, PKAcg (Homo sapiens, UniProt P22612); conditions: 500 nM; relative to DMSO; read-out: Residual enzymatic activity
# T19 construct: purchased Reaction Biology Corporation
# Summary of the method: as §1
# CDK6/cyclin D3 = molecular target: T20, CDK6/cyclin D3 (Homo sapiens, UniProt Q00534); conditions: 500 nM; relative to DMSO; read-out: Residual enzymatic activity
# T20 construct: purchased Reaction Biology Corporation
# Summary of the method: as §1
# PKCtheta = molecular target: T21, PKCtheta (Homo sapiens, UniProt Q04759); conditions: 500 nM; relative to DMSO; read-out: Residual enzymatic activity
# T21 construct: purchased Reaction Biology Corporation
# Summary of the method: as §1
# Aurora B = molecular target: T22, Aurora B (Homo sapiens, UniProt Q96GD4); conditions: 500 nM; relative to DMSO; read-out: Residual enzymatic activity
# T22 construct: purchased Reaction Biology Corporation
# Summary of the method: as §1
# WNK2 = molecular target: T23, WNK2 (Homo sapiens, UniProt Q9Y3S1); conditions: 500 nM; relative to DMSO; read-out: Residual enzymatic activity
# T23 construct: purchased Reaction Biology Corporation
# Summary of the method: as §1
# TAOK1 = molecular target: T24, TAOK1 (Homo sapiens, UniProt Q7L7X3); conditions: 500 nM; relative to DMSO; read-out: Residual enzymatic activity
# T24 construct: purchased Reaction Biology Corporation
# Summary of the method: as §1
# PLK4/SAK = molecular target: T25, PLK4/SAK (Homo sapiens, UniProt O00444); conditions: 500 nM; relative to DMSO; read-out: Residual enzymatic activity
# T25 construct: purchased Reaction Biology Corporation
# Summary of the method: as §1
# OSR1/OXSR1 = molecular target: T26, OSR1/OXSR1 (Homo sapiens, UniProt O95747); conditions: 500 nM; relative to DMSO; read-out: Residual enzymatic activity
# T26 construct: purchased Reaction Biology Corporation
# Summary of the method: as §1
# AXL = molecular target: T27, AXL (Homo sapiens, UniProt P30530); conditions: 500 nM; relative to DMSO; read-out: Residual enzymatic activity
# T27 construct: purchased Reaction Biology Corporation
# Summary of the method: as §1
# CDK1/cyclin E = molecular target: T28, CDK1/cyclin E (Homo sapiens, UniProt P06493); conditions: 500 nM; relative to DMSO; read-out: Residual enzymatic activity
# T28 construct: purchased Reaction Biology Corporation
# Summary of the method: as §1
# PKCeta = molecular target: T29, PKCeta (Homo sapiens, UniProt P24723); conditions: 500 nM; relative to DMSO; read-out: Residual enzymatic activity
# T29 construct: purchased Reaction Biology Corporation
# Summary of the method: as §1
# CDK2/cyclin E = molecular target: T30, CDK2/cyclin E (Homo sapiens, UniProt P24941); conditions: 500 nM; relative to DMSO; read-out: Residual enzymatic activity
# T30 construct: purchased Reaction Biology Corporation
# Summary of the method: as §1
# NEK7 = molecular target: T31, NEK7 (Homo sapiens, UniProt Q8TDX7); conditions: 500 nM; relative to DMSO; read-out: Residual enzymatic activity
# T31 construct: purchased Reaction Biology Corporation
# Summary of the method: as §1
# CLK3 = molecular target: T32, CLK3 (Homo sapiens, UniProt P49761); conditions: 500 nM; relative to DMSO; read-out: Residual enzymatic activity
# T32 construct: purchased Reaction Biology Corporation
# Summary of the method: as §1
# [1] = 10-dose mode, threefold serial dilution from 10 μM
# T6 sequence (Q07912 whole entry): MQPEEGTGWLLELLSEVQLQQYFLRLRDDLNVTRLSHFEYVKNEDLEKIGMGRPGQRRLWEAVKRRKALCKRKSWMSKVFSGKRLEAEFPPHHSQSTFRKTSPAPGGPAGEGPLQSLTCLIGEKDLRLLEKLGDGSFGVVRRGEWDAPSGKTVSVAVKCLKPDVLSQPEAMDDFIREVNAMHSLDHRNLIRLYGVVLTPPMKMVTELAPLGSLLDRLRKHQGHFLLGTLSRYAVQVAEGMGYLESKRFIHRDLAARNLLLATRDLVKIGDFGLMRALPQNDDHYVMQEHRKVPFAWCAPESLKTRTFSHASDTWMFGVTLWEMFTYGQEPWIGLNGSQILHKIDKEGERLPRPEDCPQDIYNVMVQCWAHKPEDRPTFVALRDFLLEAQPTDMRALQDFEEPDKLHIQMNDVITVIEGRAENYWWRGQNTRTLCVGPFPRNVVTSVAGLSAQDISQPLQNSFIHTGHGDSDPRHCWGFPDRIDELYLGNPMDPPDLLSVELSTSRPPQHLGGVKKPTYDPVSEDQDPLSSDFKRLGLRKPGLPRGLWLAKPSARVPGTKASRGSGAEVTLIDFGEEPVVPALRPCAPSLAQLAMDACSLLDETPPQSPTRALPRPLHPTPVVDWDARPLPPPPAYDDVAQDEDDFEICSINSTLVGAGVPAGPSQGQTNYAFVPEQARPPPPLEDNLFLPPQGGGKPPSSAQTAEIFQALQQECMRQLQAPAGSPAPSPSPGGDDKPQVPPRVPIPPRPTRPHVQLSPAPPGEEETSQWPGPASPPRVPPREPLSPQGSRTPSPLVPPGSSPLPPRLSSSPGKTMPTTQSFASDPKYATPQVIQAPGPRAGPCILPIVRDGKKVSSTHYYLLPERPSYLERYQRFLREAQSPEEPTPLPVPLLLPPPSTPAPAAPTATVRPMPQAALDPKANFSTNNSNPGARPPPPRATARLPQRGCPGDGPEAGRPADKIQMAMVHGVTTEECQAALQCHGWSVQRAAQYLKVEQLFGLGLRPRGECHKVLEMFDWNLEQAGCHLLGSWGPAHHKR
# T17 sequence (Q02779 whole entry): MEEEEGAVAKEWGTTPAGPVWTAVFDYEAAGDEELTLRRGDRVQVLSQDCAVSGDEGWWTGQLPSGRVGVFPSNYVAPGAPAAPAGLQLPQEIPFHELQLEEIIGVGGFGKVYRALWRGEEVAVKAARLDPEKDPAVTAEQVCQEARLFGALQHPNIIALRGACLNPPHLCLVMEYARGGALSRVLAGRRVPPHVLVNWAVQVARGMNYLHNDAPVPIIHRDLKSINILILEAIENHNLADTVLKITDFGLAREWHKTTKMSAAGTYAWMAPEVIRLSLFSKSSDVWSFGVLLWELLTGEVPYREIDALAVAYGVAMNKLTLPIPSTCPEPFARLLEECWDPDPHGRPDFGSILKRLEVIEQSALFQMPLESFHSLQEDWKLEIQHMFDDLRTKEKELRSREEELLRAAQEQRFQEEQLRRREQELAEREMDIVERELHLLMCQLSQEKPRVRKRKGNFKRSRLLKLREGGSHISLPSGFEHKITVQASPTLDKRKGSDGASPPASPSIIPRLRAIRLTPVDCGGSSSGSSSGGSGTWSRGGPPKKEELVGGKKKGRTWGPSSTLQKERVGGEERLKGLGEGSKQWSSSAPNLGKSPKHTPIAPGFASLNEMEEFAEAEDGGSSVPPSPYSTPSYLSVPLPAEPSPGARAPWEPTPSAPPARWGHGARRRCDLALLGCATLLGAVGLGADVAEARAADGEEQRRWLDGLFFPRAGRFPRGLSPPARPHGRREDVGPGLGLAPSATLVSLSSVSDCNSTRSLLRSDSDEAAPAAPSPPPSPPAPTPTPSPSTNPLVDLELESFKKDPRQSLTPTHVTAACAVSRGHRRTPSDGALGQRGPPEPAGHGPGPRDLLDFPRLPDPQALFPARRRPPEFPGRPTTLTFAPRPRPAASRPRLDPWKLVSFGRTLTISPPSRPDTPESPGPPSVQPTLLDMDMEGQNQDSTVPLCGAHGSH
# T2 sequence (Q9BZL6 whole entry): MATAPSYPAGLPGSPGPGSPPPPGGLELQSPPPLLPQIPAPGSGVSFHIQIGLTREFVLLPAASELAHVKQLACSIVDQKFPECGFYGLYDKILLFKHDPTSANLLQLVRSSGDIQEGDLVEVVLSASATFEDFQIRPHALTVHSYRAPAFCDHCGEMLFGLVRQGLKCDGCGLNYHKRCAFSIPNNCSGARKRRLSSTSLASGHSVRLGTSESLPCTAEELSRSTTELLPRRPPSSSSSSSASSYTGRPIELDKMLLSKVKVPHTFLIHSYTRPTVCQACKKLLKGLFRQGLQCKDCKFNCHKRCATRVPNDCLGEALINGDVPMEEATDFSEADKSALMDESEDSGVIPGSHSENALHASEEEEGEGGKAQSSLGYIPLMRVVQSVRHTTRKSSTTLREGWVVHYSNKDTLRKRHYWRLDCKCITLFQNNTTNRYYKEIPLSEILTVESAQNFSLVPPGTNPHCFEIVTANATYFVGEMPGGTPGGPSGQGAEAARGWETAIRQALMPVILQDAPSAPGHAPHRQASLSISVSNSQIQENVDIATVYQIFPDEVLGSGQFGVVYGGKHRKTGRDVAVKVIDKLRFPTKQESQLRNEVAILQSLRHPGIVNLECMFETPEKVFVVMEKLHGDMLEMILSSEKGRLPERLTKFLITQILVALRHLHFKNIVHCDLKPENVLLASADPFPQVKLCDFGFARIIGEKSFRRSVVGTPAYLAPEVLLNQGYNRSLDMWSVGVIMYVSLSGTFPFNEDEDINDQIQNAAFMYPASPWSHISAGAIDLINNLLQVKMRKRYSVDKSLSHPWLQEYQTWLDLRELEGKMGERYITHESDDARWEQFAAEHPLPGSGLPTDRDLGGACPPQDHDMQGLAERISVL
# T13 sequence (P16591 whole entry): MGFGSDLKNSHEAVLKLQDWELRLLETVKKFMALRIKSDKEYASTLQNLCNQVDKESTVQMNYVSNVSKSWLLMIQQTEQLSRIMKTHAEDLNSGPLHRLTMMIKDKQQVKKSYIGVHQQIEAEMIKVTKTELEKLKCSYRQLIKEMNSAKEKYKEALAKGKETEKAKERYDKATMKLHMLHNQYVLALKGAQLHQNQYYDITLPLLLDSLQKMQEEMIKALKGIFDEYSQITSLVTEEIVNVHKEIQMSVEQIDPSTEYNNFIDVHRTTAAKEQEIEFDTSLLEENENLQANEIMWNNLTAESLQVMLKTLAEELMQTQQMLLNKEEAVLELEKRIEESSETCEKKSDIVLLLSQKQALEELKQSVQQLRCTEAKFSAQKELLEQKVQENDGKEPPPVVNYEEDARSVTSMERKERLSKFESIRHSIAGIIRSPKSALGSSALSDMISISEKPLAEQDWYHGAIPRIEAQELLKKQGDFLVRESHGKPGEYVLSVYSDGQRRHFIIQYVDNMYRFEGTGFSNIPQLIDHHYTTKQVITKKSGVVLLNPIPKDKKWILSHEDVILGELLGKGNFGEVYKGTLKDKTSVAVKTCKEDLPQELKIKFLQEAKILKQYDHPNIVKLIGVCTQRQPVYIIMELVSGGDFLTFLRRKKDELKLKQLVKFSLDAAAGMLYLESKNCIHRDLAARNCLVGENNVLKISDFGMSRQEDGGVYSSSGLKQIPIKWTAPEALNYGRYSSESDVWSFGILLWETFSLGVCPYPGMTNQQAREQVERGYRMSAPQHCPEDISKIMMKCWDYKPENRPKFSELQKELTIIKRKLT
# T21 sequence (Q04759 whole entry): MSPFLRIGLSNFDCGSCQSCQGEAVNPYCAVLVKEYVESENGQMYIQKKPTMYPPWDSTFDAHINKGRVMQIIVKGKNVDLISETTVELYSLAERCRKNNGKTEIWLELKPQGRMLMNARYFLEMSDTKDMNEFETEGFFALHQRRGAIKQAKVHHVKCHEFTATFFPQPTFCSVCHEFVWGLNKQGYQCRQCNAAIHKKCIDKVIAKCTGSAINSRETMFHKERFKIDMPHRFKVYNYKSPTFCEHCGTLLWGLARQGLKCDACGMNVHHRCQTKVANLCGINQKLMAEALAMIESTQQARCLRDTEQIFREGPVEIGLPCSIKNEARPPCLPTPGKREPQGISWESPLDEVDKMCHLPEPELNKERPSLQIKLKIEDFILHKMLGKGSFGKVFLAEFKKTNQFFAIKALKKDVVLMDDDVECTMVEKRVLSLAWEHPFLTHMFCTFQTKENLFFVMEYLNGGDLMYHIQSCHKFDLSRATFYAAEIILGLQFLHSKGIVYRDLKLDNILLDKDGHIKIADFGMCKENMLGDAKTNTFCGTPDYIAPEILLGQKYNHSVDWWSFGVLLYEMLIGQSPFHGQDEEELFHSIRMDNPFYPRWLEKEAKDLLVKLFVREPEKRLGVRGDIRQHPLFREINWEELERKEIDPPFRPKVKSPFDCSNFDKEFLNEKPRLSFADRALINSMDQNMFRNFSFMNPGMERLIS
# T18 sequence (Q9NY57 whole entry): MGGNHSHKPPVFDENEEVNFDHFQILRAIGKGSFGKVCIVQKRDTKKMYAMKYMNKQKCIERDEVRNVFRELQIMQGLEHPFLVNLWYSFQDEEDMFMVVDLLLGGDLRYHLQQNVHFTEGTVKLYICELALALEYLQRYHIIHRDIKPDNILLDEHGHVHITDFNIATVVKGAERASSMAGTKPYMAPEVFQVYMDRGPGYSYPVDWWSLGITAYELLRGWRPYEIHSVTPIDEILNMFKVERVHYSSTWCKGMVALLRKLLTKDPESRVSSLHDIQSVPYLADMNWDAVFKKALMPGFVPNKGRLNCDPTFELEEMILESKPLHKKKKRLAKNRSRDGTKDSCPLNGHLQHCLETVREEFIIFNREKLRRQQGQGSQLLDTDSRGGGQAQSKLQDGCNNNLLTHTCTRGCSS
SMILES,remaining activity at 0.5 µM (CLK2),remaining activity at 0.5 µM (PKD2/PRKD2),remaining activity at 0.5 µM (MEK3),remaining activity at 0.5 µM (ZAP70),remaining activity at 0.5 µM (MEK2),remaining activity at 0.5 µM (ACK1),remaining activity at 0.5 µM (SNARK/NUAK2),remaining activity at 0.5 µM (SRPK1),remaining activity at 0.5 µM (ASK1/MAP3K5),remaining activity at 0.5 µM (BRSK2),remaining activity at 0.5 µM (RIPK3),remaining activity at 0.5 µM (JAK3),remaining activity at 0.5 µM (FER),remaining activity at 0.5 µM (MUSK),remaining activity at 0.5 µM (DYRK2),remaining activity at 0.5 µM (PIM3),remaining activity at 0.5 µM (MLK2/MAP3K10),remaining activity at 0.5 µM (STK32B/YANK2),remaining activity at 0.5 µM (PKAcg),remaining activity at 0.5 µM (CDK6/cyclin D3),further results
"COc1cc(Nc2ncc(F)c(Nc3ccc4c(n3)NC(=O)C(C)(C)O4)n2)cc(OC)c1OC [R406, reference compound]",81.6%,75.2%,131%,43.5%,83.5%,0.6%,59.7%,101%,97.1%,84.2%,107%,10.4%,22.9%,62.1%,64.1%,82.8%,1.1%,92%,91.7%,97.4%,remaining activity at 0.5 µM (PKCtheta): 99.5%; remaining activity at 0.5 µM (Aurora B): 40.2%; remaining activity at 0.5 µM (WNK2): 95.2%; remaining activity at 0.5 µM (TAOK1): 78.1%; remaining activity at 0.5 µM (PLK4/SAK): 17.2%; remaining activity at 0.5 µM (OSR1/OXSR1): 97.2%; remaining activity at 0.5 µM (AXL): 44.5%; remaining activity at 0.5 µM (CDK1/cyclin E): 76.5%; remaining activity at 0.5 µM (PKCeta): 96.6%; remaining activity at 0.5 µM (CDK2/cyclin E): 60%; remaining activity at 0.5 µM (NEK7): 62.3%; remaining activity at 0.5 µM (CLK3): 89.4%
COc1cc(Nc2ncnc(Nc3cc4c(cn3)NC(=O)C(C)(C)O4)n2)cc(OC)c1OC [MT-SYK-03],94.5%,102%,119%,93.4%,97.2%,5.4%,102%,108%,102%,92.5%,108%,74.7%,78.8%,79.9%,104%,98.8%,7.5%,103%,106%,101%,pIC50 (ACK1; [1]): 7.07; pIC50 (MLK2/MAP3K10; [1]): 8.37; inhibition at 0.5 µM (MLK2/MAP3K10; read-out: Inhibition at 500 nM): > 90%; remaining activity at 0.5 µM (PKCtheta): 102%; remaining activity at 0.5 µM (Aurora B): 78.6%; remaining activity at 0.5 µM (WNK2): 84.6%; remaining activity at 0.5 µM (TAOK1): 102%; remaining activity at 0.5 µM (PLK4/SAK): 77.8%; remaining activity at 0.5 µM (OSR1/OXSR1): 98.2%; remaining activity at 0.5 µM (AXL): 74.3%; remaining activity at 0.5 µM (CDK1/cyclin E): 94.6%; remaining activity at 0.5 µM (PKCeta): 109%; remaining activity at 0.5 µM (CDK2/cyclin E): 82.1%; remaining activity at 0.5 µM (NEK7): 95.9%; remaining activity at 0.5 µM (CLK3): 103%
